Experimental data from the NIST ThermoML archive (doi:10.1021/je300938w).

Columns and labels:
[1] = wn = mass fraction of the nth substance listed; conditions: 101 kPa, Liquid; for viscosity: Concentric cylinders viscometry; for mass density: Vibrating tube method
[2] = refractive index (Na D-line) (dimensionless); wn = mass fraction of the nth substance listed; conditions: 101 kPa, Liquid, Standard Abbe refractometry

CC(O)CN (stereo not given) [1-amino-2-propanol] + O
Conditions | mass density, [1] [kg/m3] | refractive index, [2] | viscosity, [1] [mPa·s]
298.15 K, w1 = 0.05 | 998.574 | 1.33891 | 1.088
298.15 K, w1 = 0.1 | 999.182 | 1.34586 | 1.296
298.15 K, w1 = 0.15 | 999.932 | 1.35281 | 1.569
298.15 K, w1 = 0.2 | 1001.03 | 1.35955 | 1.944
298.15 K, w1 = 0.25 | 1002.46 | 1.36649 | 2.444
303.15 K, w1 = 0.05 | 997.087 | 1.33825 | 0.9733
303.15 K, w1 = 0.1 | 997.57 | 1.34506 | 1.148
303.15 K, w1 = 0.15 | 998.142 | 1.35201 | 1.372
303.15 K, w1 = 0.2 | 999.018 | 1.35875 | 1.678
303.15 K, w1 = 0.25 | 1000.2 | 1.3656 | 2.083
308.15 K, w1 = 0.05 | 995.386 | 1.33749 | 0.8761
308.15 K, w1 = 0.1 | 995.747 | 1.34432 | 1.027
308.15 K, w1 = 0.15 | 996.159 | 1.35092 | 1.215
308.15 K, w1 = 0.2 | 996.833 | 1.35767 | 1.468
308.15 K, w1 = 0.25 | 997.78 | 1.36461 | 1.799
313.15 K, w1 = 0.05 | 993.483 | 1.33668 | 0.7937
313.15 K, w1 = 0.1 | 993.738 | 1.34343 | 0.9275
313.15 K, w1 = 0.15 | 994.005 | 1.35012 | 1.084
313.15 K, w1 = 0.2 | 994.489 | 1.35672 | 1.295
313.15 K, w1 = 0.25 | 995.218 | 1.36347 | 1.574
318.15 K, w1 = 0.05 | 991.399 | 1.33578 | 0.7225
318.15 K, w1 = 0.1 | 991.552 | 1.34259 | 0.8362
318.15 K, w1 = 0.15 | 991.681 | 1.34908 | 0.9756
318.15 K, w1 = 0.2 | 991.989 | 1.35573 | 1.155
318.15 K, w1 = 0.25 | 992.514 | 1.36228 | 1.384
323.15 K, w1 = 0.05 | 989.143 | 1.33483 | 0.6617
323.15 K, w1 = 0.1 | 989.197 | 1.34154 | 0.7617
323.15 K, w1 = 0.15 | 989.197 | 1.34799 | 0.8864
323.15 K, w1 = 0.2 | 989.338 | 1.35454 | 1.039
323.15 K, w1 = 0.25 | 989.679 | 1.36109 | 1.231
328.15 K, w1 = 0.05 | 986.722 | 1.33384 | 0.6112
328.15 K, w1 = 0.1 | 986.682 | 1.3405 | 0.6988
328.15 K, w1 = 0.15 | 986.564 | 1.34705 | 0.8113
328.15 K, w1 = 0.2 | 986.546 | 1.3533 | 0.943
328.15 K, w1 = 0.25 | 986.711 | 1.35985 | 1.102
333.15 K, w1 = 0.05 | 984.143 | 1.3328 | 0.5696
333.15 K, w1 = 0.1 | 984.015 | 1.33936 | 0.647
333.15 K, w1 = 0.15 | 983.779 | 1.34581 | 0.75
333.15 K, w1 = 0.2 | 983.615 | 1.35211 | 0.8659
333.15 K, w1 = 0.25 | 983.616 | 1.35861 | 0.9934
338.15 K, w1 = 0.05 | 981.41 | 1.33173 | 0.5381
338.15 K, w1 = 0.1 | 981.198 | 1.33832 | 0.6053
338.15 K, w1 = 0.15 | 980.853 | 1.34462 | 0.6919
338.15 K, w1 = 0.2 | 980.549 | 1.35092 | 0.8
338.15 K, w1 = 0.25 | 980.398 | 1.35753 | 0.9015
343.15 K, w1 = 0.05 | 978.537 | 1.33057 | 0.5152
343.15 K, w1 = 0.1 | 978.237 | 1.33713 | 0.5701
343.15 K, w1 = 0.15 | 977.785 | 1.34343 | 0.6478
343.15 K, w1 = 0.2 | 977.354 | 1.34968 | 0.7408
343.15 K, w1 = 0.25 | 977.059 | 1.35614 | 0.8266
